Here are results for one compound from paper PMC7616177, “From structure to clinic: Design of a muscarinic M1 receptor agonist with the potential to treat Alzheimer’s disease” (Cell, 2021).

One series addresses T1, M3-receptor (Homo sapiens, UniProt P20309).
T1 construct: expressed in transfected cells
Nature of the series: M3-receptor functional agonist assay. Format: cell-based. How it is done: (§1) Functional assays were performed using the Alphascreen Surefire phopho-ERK1/2 assay. […] Once adhered, cells were serum starved overnight. Agonist stimulation was performed by the addition of […] agonist to the cells for a pre-optimized 5 min period (37°C). Media was removed and 50 μl of lysis buffer added. After 15 min a 4 μl sample was transferred to a 384-well plate and 7 μl of detection mixture added.

For the next series, the target named is T2, human M5-receptor (Homo sapiens, UniProt P08912).
T2 construct: expressed in transfected cells; host or cells: not described
T2 sequence (P08912 whole entry): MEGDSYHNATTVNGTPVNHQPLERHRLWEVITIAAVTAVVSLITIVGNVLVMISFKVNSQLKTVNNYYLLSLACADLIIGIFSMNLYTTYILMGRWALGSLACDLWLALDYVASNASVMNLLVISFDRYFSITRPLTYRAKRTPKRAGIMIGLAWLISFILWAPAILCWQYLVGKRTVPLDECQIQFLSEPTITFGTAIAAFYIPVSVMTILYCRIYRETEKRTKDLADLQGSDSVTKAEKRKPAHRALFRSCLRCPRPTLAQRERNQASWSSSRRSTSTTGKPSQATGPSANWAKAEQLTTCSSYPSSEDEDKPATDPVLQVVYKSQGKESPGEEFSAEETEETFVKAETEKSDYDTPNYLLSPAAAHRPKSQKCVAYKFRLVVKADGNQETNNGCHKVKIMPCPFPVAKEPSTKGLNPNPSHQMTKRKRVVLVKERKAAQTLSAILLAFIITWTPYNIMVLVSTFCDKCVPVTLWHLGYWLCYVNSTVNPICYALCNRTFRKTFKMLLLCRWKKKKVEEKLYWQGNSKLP
The experiment in a line: M5-receptor functional agonist assay. Format: cell-based.

A further series has as its system panel of 62 GPCRs. The experiment in a line: DiscoverX neurological and psychiatric GPCR selectivity panel. Format: cell-based. To be noted: 10 μM.
Series [1] in a line: Dog plasma and CSF exposure after subcutaneous dosing. Format: in vivo. To be noted: sc; for concentration at 4 h: CSF, aged beagle, 4 h post-dose, read-out: Measured Ccsf concentration.
A further series has as its system C57BL/6J mice. The experiment in a line: Scopolamine-induced deficit in contextual fear conditioning. Format: in vivo, mouse. To be noted: mice, 10, 30 or 100 mg/kg i.p. with scopolamine 1.5 mg/kg i.p. The protocol: C57BL/6J male mice (aged 8−12 weeks) were acclimatized to the behavioral testing suite at least 2 hours prior to the test. […] Mice were placed in the conditioning chamber (ANY-maze Fear Conditioning System; Stoelting, Dublin, Ireland); after a 2-min adaptation period, they received three tone/foot shock pairings where the foot shock (un-conditioned stimulus; 2 s; 0.4 mA) always co-terminated with a tone (conditioned stimulus; 2.8 kH; 85 dB; 30 s). The conditioned stimulus−unconditioned stimulus pairings were separated by 1-min intervals. After the mice completed training, they remained in the conditioning chamber for 1 min and were then returned to their home cages. The next day, the mice were placed back in the conditioning chamber, and time spent immobile was recorded for 3 min to assess context-dependent learning. Data were analyzed using ANY-maze software (Stoelting).

The next series has as its system Wistar rats. The experiment in a line: Scopolamine-induced amnesia in passive avoidance. Format: in vivo, rat. The protocol:
Male adult Wistar rats (Harlan, UK; approximately 11 weeks of age) were acclimatised to the experimental rooms for three days (study days 1-3) and handled for a further two days (study days 4 and 5) prior to the experiment.
Donepezil (0.01 and 0.1 mg/kg) was administered via intraperitoneal injection (in saline) 60 min prior to training. Rats were trained in a single-trial, step-through, light-dark passive avoidance paradigm. The training apparatus consisted of a chamber 300 mm in length, 260 mm wide, and 270 mm in height. The front and top were transparent, allowing the experimenter to observe the behavior of the animal inside the apparatus. The chamber was divided into two compartments, separated by a central shutter that contained a small opening (50 mm wide and 75 mm high) set close to the front of the chamber. The smaller of the compartments measured 90 mm in width and contained a low-light (~200 lux) illumination source. The larger compartment measured 210 mm in width and was not illuminated. The floor of this dark compartment consisted of a grid of 16 horizontal stainless-steel bars that were 5 mm in diameter and spaced 12.5 mm apart. A current generator supplied 0.75 mA to the grid floor, which was scrambled once every 0.5 s across the 16 bars.
Animals were placed facing the rear of the light compartment of the apparatus, immediately after which, spontaneous behavior was assessed. The timer was started once the animal completely turned to face the front of the chamber. Latency to enter the dark chamber was recorded, and having completely entered the dark compartment foot shock was administered to the animal, which immediately returned to the light compartment. Animals were then returned to their home cages. Between each training session, both compartments of the chamber were cleaned to remove any confounding olfactory cues. Vehicle (saline) or scopolamine (1 mg/kg) was administered to rats 6 hours after training. Recall of the inhibitory stimulus was evaluated 24 hour post-training on study day 7, by returning the animal into the light chamber and recording their latency to enter the dark chamber, a criterion time of 600 s was employed. Observation of the animals was made by overhead video camera linked to a monitor behind a screened area. Animal treatment was blinded to the observer.

Series [2] is described as follows: Non-human primate exposure. Format: in vivo, non-human primates. To be noted: for Predicted brain exposure Cu,br: non-human primates.
For the next series, the system named is non-human primates. Nature of the series: Safety clinical signs, non-human primates. Format: in vivo.
Another series deals with T3, M2-receptor (Homo sapiens, UniProt P08172).
T3 sequence (P08172 1-466): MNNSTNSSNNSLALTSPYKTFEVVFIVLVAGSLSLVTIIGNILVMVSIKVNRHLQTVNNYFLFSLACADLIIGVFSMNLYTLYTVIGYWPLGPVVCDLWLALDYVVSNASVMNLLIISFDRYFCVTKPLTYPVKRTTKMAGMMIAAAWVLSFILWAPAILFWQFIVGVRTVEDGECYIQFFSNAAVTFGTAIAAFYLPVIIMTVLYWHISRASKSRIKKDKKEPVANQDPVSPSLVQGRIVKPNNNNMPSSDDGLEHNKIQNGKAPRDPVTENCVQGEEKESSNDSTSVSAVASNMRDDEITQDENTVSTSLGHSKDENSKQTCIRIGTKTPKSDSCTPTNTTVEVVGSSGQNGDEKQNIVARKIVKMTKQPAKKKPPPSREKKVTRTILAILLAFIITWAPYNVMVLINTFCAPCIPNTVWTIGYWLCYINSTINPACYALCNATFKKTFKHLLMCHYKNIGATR
Nature of the series: M2-receptor functional agonist assay. Format: cell-based. The arrangement: expressed in transfected cells. How it is done:
as §1

Series [3] in a line: 4-day repeat dose tolerability assessment in dogs. To be noted: beagle, dog.

The structures appear in SMILES notation. Like-named read-outs stand apart in the source and are kept apart here. Bounds are passed on as bounds.

T1 sequence (P20309 whole entry): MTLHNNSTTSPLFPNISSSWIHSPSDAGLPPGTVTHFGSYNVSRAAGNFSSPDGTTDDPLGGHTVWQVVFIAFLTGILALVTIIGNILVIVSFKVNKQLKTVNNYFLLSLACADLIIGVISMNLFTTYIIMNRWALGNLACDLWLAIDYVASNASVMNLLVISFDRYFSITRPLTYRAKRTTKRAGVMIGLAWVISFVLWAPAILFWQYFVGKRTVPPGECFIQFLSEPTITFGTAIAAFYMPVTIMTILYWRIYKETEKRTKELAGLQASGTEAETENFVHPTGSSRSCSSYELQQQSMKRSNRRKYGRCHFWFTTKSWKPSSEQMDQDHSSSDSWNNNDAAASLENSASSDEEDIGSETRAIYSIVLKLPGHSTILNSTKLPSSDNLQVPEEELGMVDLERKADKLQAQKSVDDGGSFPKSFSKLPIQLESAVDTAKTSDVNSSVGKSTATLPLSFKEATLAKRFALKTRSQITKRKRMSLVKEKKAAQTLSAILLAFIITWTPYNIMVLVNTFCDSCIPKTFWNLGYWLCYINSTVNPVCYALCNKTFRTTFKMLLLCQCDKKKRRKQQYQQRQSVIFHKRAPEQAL

The term EC50 denotes the concentration giving half of the maximal effect. For the compound `CCOC(=O)N1CCC[C@H](N2CCC(C(=O)NC3(C)CCC3)CC2)CC1` [HTL9936, ethyl (S)-4-(4-((1-methylcyclobutyl)carbamoyl)piperidin-1-yl)azepane-1-carboxylate], the EC50 on M3-receptor and on M2-receptor was above 20 µM each time. Further, on M3-receptor, the M3-receptor agonist activity result is on record as “no detectable agonism”. In addition, the M5-receptor agonism result at human M5-receptor was “no detectable agonism”. In addition, the “Agonism at other receptors” value in the series with panel of 62 GPCRs is given as below 25%. Further, the concentration at 4 h turned out to be 0.013 µM in [1] (0.3 mg/kg s.c.), 0.048 µM in series [1] (1 mg/kg s.c.) and 0.128 µM in series [1] (2 mg/kg s.c.). Also, the Cmax in series [1] (plasma, aged beagle DNMP study, 0.3 mg/kg subcutaneous, read-out: Cmax plasma exposure at minimal effective dose) amounted to 0.058 µg/mL. Besides, in the series with C57BL/6J mice, the “Effect on scopolamine-induced fear learning deficit” value is “dose-dependent restoration of learning and memory responses”. Moreover, in the series with Wistar rats (rat passive avoidance), the “Maximal response compared with donepezil 0.1 mg/kg” value is listed as “equivalent to that obtained using the clinically approved acetylcholinesterase inhibitor donepezil”. In the series with Wistar rats (rat passive avoidance, HTL9936 3 mg/kg), the Response alone result is given as “no response alone”. Also, the “Effect on scopolamine-induced amnesia” value with Wistar rats (rat, 3, 10 or 30 mg/kg p.o., scopolamine 1 mg/kg i.p.) is recorded as “reversed in a dose-dependent manner”. Further, the entries for the “Predicted brain exposure Cu,br” value in [2] (0.3 mg/kg subcutaneous) and in series [2] (3 mg/kg subcutaneous) were 20 nM and 198 nM, respectively. Moreover, the Oral bioavailability result in series [2] (primates) is on record as “low oral bioavailability”. Moreover, the “Cu,pl without cholinergic clinical signs” value in the series on non-human primates is reported as 991 nM. For the same compound, the “Plasma exposure without cholinergic clinical signs” value in the series with non-human primates is on record as at most 557 ng/mL. For the same compound, at M2-receptor, the M2-receptor agonist activity entry is on record as “no detectable agonism”. In [3] (plasma), this compound yielded a Cmax at 4 day above 32 µg/mL. For the same compound, the concentration at 4 day in series [3] (plasma (unbound)) came to 60 µM.
